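Interpolation was linear, between the two tested concentrations surrounding the appropriate level; five concentrations were tested over 48 hours in 96-well plates. Here, GI50 denotes the concentration required for 50% inhibition of growth. TGI: concentration producing complete growth inhibition.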
Experiments:
Assay in all cases: inhibition of tumour cell growth, NCI panel, 48 h
TK-10 renal = test system: TK-10 renal
MALME-3M melanoma = test system: MALME-3M melanoma
HCT-116 colon = test system: HCT-116 colon
A549 NSCLC = test system: A549 NSCLC
COLO 205 colon = test system: COLO 205 colon
HCC-2998 colon = test system: HCC-2998 colon
OVCAR-3 ovarian = test system: OVCAR-3 ovarian
SR leukemia = test system: SR leukemia
A498 renal = test system: A498 renal
SK-MEL-5 melanoma = test system: SK-MEL-5 melanoma
SN12C renal = test system: SN12C renal
SNB-75 CNS = test system: SNB-75 CNS
LOX IMVI melanoma = test system: LOX IMVI melanoma
NCI-H23 lung = test system: NCI-H23 lung
UACC-62 melanoma = test system: UACC-62 melanoma
PC-3 prostate = test system: PC-3 prostate
NCI-H226 lung = test system: NCI-H226 lung
MCF7 breast = test system: MCF7 breast
RXF 393 renal = test system: RXF 393 renal
SK-OV-3 ovarian = test system: SK-OV-3 ovarian
SK-MEL-28 melanoma = test system: SK-MEL-28 melanoma
HL-60(TB) leukemia = test system: HL-60(TB) leukemia
HOP-92 NSCLC = test system: HOP-92 NSCLC
ACHN renal = test system: ACHN renal
OVCAR-4 ovarian = test system: OVCAR-4 ovarian
M14 melanoma = test system: M14 melanoma
UACC-257 melanoma = test system: UACC-257 melanoma
OVCAR-8 ovarian = test system: OVCAR-8 ovarian
KM12 colon = test system: KM12 colon
SF-539 CNS = test system: SF-539 CNS
UO-31 renal = test system: UO-31 renal
SF-268 CNS = test system: SF-268 CNS
MOLT-4 leukemia = test system: MOLT-4 leukemia
CCRF-CEM leukemia = test system: CCRF-CEM leukemia
U251 CNS = test system: U251 CNS
MDA-MB-231 breast = test system: MDA-MB-231 breast
CAKI-1 renal = test system: CAKI-1 renal
SNB-19 CNS = test system: SNB-19 CNS
NCI/ADR-RES ovarian = test system: NCI/ADR-RES ovarian
MDA-MB-435 = test system: MDA-MB-435
HCT-15 colon = test system: HCT-15 colon
EKVX NSCLC = test system: EKVX NSCLC
SF-295 CNS = test system: SF-295 CNS
NCI-H522 lung = test system: NCI-H522 lung
DU-145 prostate = test system: DU-145 prostate
786-0 renal = test system: 786-0 renal
SK-MEL-2 melanoma = test system: SK-MEL-2 melanoma
BT-549 breast = test system: BT-549 breast
HS 578T breast = test system: HS 578T breast
T-47D breast = test system: T-47D breast
SW-620 colon = test system: SW-620 colon
K-562 leukemia = test system: K-562 leukemia
HT29 colon = test system: HT29 colon
OVCAR-5 ovarian = test system: OVCAR-5 ovarian
NCI-H460 lung = test system: NCI-H460 lung
HOP-62 NSCLC = test system: HOP-62 NSCLC
IGROV1 ovarian = test system: IGROV1 ovarian

`O=C(c1ccco1)N(Cc1cccnc1)C(=S)N(Cc1cccnc1)C(=O)c1ccco1` showed a TGI (TK-10 renal) of 23.3 µM, a TGI (MALME-3M melanoma) of 32.7 µM and a TGI (HCT-116 colon) of 20.6 µM. It also gave a TGI (A549 NSCLC) of 38.8 µM, a TGI (COLO 205 colon) of 16.3 µM and a TGI (HCC-2998 colon) of 31.8 µM. The TGI (OVCAR-3 ovarian) was 23.4 µM, the TGI (SR leukemia) was > 100 µM and the TGI (A498 renal) was 62.7 µM. For the same compound, the TGI (SK-MEL-5 melanoma) was 29.1 µM, the TGI (SN12C renal) was 24 µM and the TGI (SNB-75 CNS) was 98.7 µM. For the same compound, the TGI (LOX IMVI melanoma) was 27.8 µM, the TGI (NCI-H23 lung) was 61.6 µM and the TGI (UACC-62 melanoma) was 29.7 µM. The TGI (PC-3 prostate) was 19.7 µM, the TGI (NCI-H226 lung) was 47.9 µM and the TGI (MCF7 breast) was 14.7 µM. The TGI (RXF 393 renal) was 57.4 µM, the TGI (SK-OV-3 ovarian) was 83.8 µM and the TGI (SK-MEL-28 melanoma) was 45.8 µM. It also gave a TGI (HL-60(TB) leukemia) of 49 µM, a TGI (HOP-92 NSCLC) of 38.7 µM and a TGI (ACHN renal) of 30.7 µM. The TGI (OVCAR-4 ovarian) was 50 µM, the TGI (M14 melanoma) was 27 µM and the TGI (UACC-257 melanoma) was 31.7 µM. The TGI (OVCAR-8 ovarian) was 66 µM, the TGI (KM12 colon) was 23.4 µM and the TGI (SF-539 CNS) was 26.7 µM. The TGI (UO-31 renal) was 28.8 µM, the TGI (SF-268 CNS) was 43.6 µM and the TGI (MOLT-4 leukemia) was > 100 µM. The TGI (CCRF-CEM leukemia) was 14.5 µM, the TGI (U251 CNS) was 31.4 µM and the TGI (MDA-MB-231 breast) was 22.6 µM. The TGI (CAKI-1 renal) was 45.4 µM, the TGI (SNB-19 CNS) was 83.5 µM and the TGI (NCI/ADR-RES ovarian) was > 100 µM. It also gave a TGI (MDA-MB-435) of 38.7 µM, a TGI (HCT-15 colon) of 77.7 µM and a TGI (EKVX NSCLC) of 35.8 µM. The TGI (SF-295 CNS) was 77.1 µM, the TGI (NCI-H522 lung) was 29.9 µM and the TGI (DU-145 prostate) was > 100 µM. The TGI (786-0 renal) was 11.8 µM, the TGI (SK-MEL-2 melanoma) was 28.1 µM and the TGI (BT-549 breast) was 66.2 µM. It also gave a TGI (HS 578T breast) of 56.4 µM, a TGI (T-47D breast) of 63.2 µM and a TGI (SW-620 colon) of 36.5 µM. The TGI (K-562 leukemia) was > 100 µM, the TGI (HT29 colon) was 44.3 µM and the TGI (OVCAR-5 ovarian) was 46.9 µM. It also gave a TGI (NCI-H460 lung) of 55.6 µM and a TGI (HOP-62 NSCLC) of 44.1 µM.
With `C/C=C(/C(=C/C)c1ccc(O)cc1)c1ccc(O)cc1` the GI50 (TK-10 renal) was 12.8 µM, the TGI (TK-10 renal) was 29.4 µM and the GI50 (MALME-3M melanoma) was 7.07 µM. For the same compound, the TGI (MALME-3M melanoma) was 31 µM, the GI50 (HCT-116 colon) was 4.58 µM and the TGI (HCT-116 colon) was 16.2 µM. For the same compound, the GI50 (A549 NSCLC) was 4.04 µM, the TGI (A549 NSCLC) was 19 µM and the GI50 (COLO 205 colon) was 3.25 µM. The TGI (COLO 205 colon) was 10.5 µM, the GI50 (HCC-2998 colon) was 8.64 µM and the TGI (HCC-2998 colon) was 24 µM. For the same compound, the GI50 (OVCAR-3 ovarian) was 2370 nM, the TGI (OVCAR-3 ovarian) was 5.38 µM and the GI50 (SR leukemia) was 4.24 µM. It also gave a TGI (SR leukemia) of 92.9 µM, a GI50 (A498 renal) of 6.22 µM and a TGI (A498 renal) of 19.3 µM. The GI50 (SK-MEL-5 melanoma) was 3.56 µM, the TGI (SK-MEL-5 melanoma) was 15.2 µM and the GI50 (SN12C renal) was 5.22 µM. For the same compound, the TGI (SN12C renal) was 22.9 µM, the GI50 (SNB-75 CNS) was 1900 nM and the TGI (SNB-75 CNS) was 5.34 µM. For the same compound, the GI50 (LOX IMVI melanoma) was 5.51 µM, the TGI (LOX IMVI melanoma) was 24.3 µM and the GI50 (NCI-H23 lung) was 5.3 µM. The TGI (NCI-H23 lung) was 21.9 µM, the GI50 (UACC-62 melanoma) was 4.86 µM and the TGI (UACC-62 melanoma) was 18.7 µM. The GI50 (PC-3 prostate) was 4.51 µM, the TGI (PC-3 prostate) was 17.4 µM and the GI50 (NCI-H226 lung) was 9.36 µM. It also gave a TGI (NCI-H226 lung) of 47 µM, a GI50 (MCF7 breast) of 7.19 µM and a TGI (MCF7 breast) of 26.1 µM. The GI50 (RXF 393 renal) was 4.03 µM, the TGI (RXF 393 renal) was 17.7 µM and the GI50 (SK-OV-3 ovarian) was 2540 nM. For the same compound, the TGI (SK-OV-3 ovarian) was 8.88 µM, the GI50 (SK-MEL-28 melanoma) was 5.71 µM and the TGI (SK-MEL-28 melanoma) was 21.1 µM. It also gave a GI50 (HL-60(TB) leukemia) of 3.9 µM, a TGI (HL-60(TB) leukemia) of 25.1 µM and a GI50 (HOP-92 NSCLC) of 3.98 µM. The TGI (HOP-92 NSCLC) was 22.7 µM, the GI50 (ACHN renal) was 9.64 µM and the TGI (ACHN renal) was 21.4 µM. The GI50 (OVCAR-4 ovarian) was 8.18 µM, the TGI (OVCAR-4 ovarian) was 33.6 µM and the GI50 (M14 melanoma) was 3.33 µM. The TGI (M14 melanoma) was 12.5 µM, the GI50 (UACC-257 melanoma) was 9.4 µM and the TGI (UACC-257 melanoma) was 24.8 µM. It also gave a GI50 (OVCAR-8 ovarian) of 4.65 µM, a TGI (OVCAR-8 ovarian) of 25.4 µM and a GI50 (KM12 colon) of 3.73 µM. It also gave a TGI (KM12 colon) of 13.6 µM, a GI50 (SF-539 CNS) of 3.27 µM and a TGI (SF-539 CNS) of 13.8 µM. It also gave a GI50 (UO-31 renal) of 5.34 µM, a TGI (UO-31 renal) of 24.9 µM and a GI50 (SF-268 CNS) of 6.32 µM. For the same compound, the TGI (SF-268 CNS) was 22.8 µM, the GI50 (MOLT-4 leukemia) was 5.43 µM and the TGI (MOLT-4 leukemia) was 24.2 µM. For the same compound, the GI50 (U251 CNS) was 3.49 µM, the TGI (U251 CNS) was 15.9 µM and the GI50 (MDA-MB-231 breast) was 4.58 µM. For the same compound, the TGI (MDA-MB-231 breast) was 22.2 µM, the GI50 (CAKI-1 renal) was 3.42 µM and the TGI (CAKI-1 renal) was 16.9 µM. For the same compound, the GI50 (SNB-19 CNS) was 4.79 µM, the TGI (SNB-19 CNS) was 21 µM and the GI50 (NCI/ADR-RES ovarian) was 2810 nM. The TGI (NCI/ADR-RES ovarian) was 9.28 µM, the GI50 (MDA-MB-435) was 1190 nM and the TGI (MDA-MB-435) was 3.56 µM. The GI50 (HCT-15 colon) was 5.47 µM, the TGI (HCT-15 colon) was 20.3 µM and the GI50 (EKVX NSCLC) was 7.38 µM. The TGI (EKVX NSCLC) was 26.7 µM, the GI50 (SF-295 CNS) was 2480 nM and the TGI (SF-295 CNS) was 8.11 µM. The GI50 (NCI-H522 lung) was 3.63 µM, the TGI (NCI-H522 lung) was 16.9 µM and the GI50 (DU-145 prostate) was 3.35 µM. For the same compound, the TGI (DU-145 prostate) was 10.4 µM, the GI50 (786-0 renal) was 5.54 µM and the TGI (786-0 renal) was 27 µM. For the same compound, the GI50 (SK-MEL-2 melanoma) was 8.4 µM, the TGI (SK-MEL-2 melanoma) was 30.7 µM and the GI50 (BT-549 breast) was 7.39 µM. The TGI (BT-549 breast) was 22.5 µM, the GI50 (HS 578T breast) was 4.3 µM and the TGI (HS 578T breast) was 30.2 µM. It also gave a GI50 (T-47D breast) of 5.11 µM, a TGI (T-47D breast) of 21.9 µM and a GI50 (SW-620 colon) of 3.85 µM. It also gave a TGI (SW-620 colon) of 14.9 µM, a GI50 (IGROV1 ovarian) of 5.41 µM and a TGI (IGROV1 ovarian) of 36.8 µM. It also gave a GI50 (HT29 colon) of 3.71 µM, a TGI (HT29 colon) of 12.6 µM and a GI50 (OVCAR-5 ovarian) of 8.38 µM. For the same compound, the TGI (OVCAR-5 ovarian) was 23.2 µM, the GI50 (NCI-H460 lung) was 3.44 µM and the TGI (NCI-H460 lung) was 13.2 µM. It also gave a GI50 (HOP-62 NSCLC) of 3.62 µM and a TGI (HOP-62 NSCLC) of 16 µM.

From PubChem BioAssay (NCI)
